Results from US20230392170A1, “BIG-IN: A VERSATILE PLATFORM FOR LOCUS-SCALE GENOME REWRITING AND VERIFICATION” (New York University, priority 2020, published 2023).
Entries after “also recorded” stand apart in the source; their conditions may differ.

Tests used:
Parental H1 cells = test: GCV/TK bystander paracrine test: parental cells in medium or LP-TK conditioned medium with GCV; format: cell-based, human; details: 0.1 μM GCV, 7 days, also when preincubated with LP-TK cells (conditioned medium)
Protocol: FIG. 8. Development of an efficient counterselection strategy. a, Lack of paracrine activity in GCV/TK bystander effect. Parental H1 cells were grown for 7 days with regular StemFlex medium with or without 0.1 μM GCV or with a 1:1 mixture of regular medium and conditioned medium harvested from LP-TK cells grown with or without 0.1 μM GCV. […] Bars represent mean+S.D. for technical replicates (n=3). b, PCR genotyping for parental (Par), ΔPIGA and LP-PIGA H1 hESCs. Primers target a region of the PIGA gene (WT PIGA), the novel junction formed following PIGA deletion (ΔPIGA), a region of HPRT1 gene (WT HPRT1) and the two novel junctions formed between LP-PIGA and the surrounding genome (LP L and R Jx). c, Proaerolysin-induced cell death. The indicated H1 hESCs were treated with 0.5 nM proaerolysin for 1 day and stained with Crystal Violet. Proaerolysin resistance is conferred by PIGA inactivation and restored by hmPIGA expression. d, Rapid proaerolysin-induced cell death. e, Proaerolysin kill-curve for H1 hESCs and BL6xCAST mESCs. Cells were treated with proaerolysin for 1 day and assayed 3 days (H1) or 1 day (BL6xCAST) post treatment. Experiment was conducted in replicates (H1, n=4; BL6xCAST, n=2) and data are represented as mean±S.D. f, CD59/HLA flow cytometry of H1 hESCs. […]

H1 hESCs [1] = test: TK/GCV counterselection in co-cultures of TK-negative and TK-positive (LP-TK) cells, live cells by PrestoBlue; format: cell-based, human; details: 1 μM GCV for 4 days
Protocol: FIG. 2. Development of an efficient counterselection strategy. a, Parental (TK−) and LP-TK (TK+) H1 hESCs were co-cultured at the indicated ratios, treated with 1 μM, GCV for 4 days, and assayed for the number of live cells using PrestoBlue. Cell counts are shown relative to unmixed parental cells. Bars show mean+S.D. (n=2). b, GCV enters TK+ cells and is metabolized into the toxic membrane-impermeable compound GCV-TP, which diffuses into neighboring cells and induces bystander cell death in TK-cells. c, Big-IN counterselection strategy using PIGA/Proaerolysin. d, Parental and ΔPIGA H1 hESCs co-cultured at the indicated ratios for three days were treated with 1 nM proaerolysin for 1 day and stained with Crystal Violet 3 days later. e, Parental and ΔPiga BL6xCAST mESCs were co-cultured at the indicated ratios for one day, treated with 1 nM proaerolysin for 1 day, stained with Crystal Violet 5 days later, and colonies were counted. Bars represent mean+S.D. (n=2).
Delivery of large DNA through cassette exchange is an infrequent event, requiring selection to obtain practical efficiency. The HSV1-TK gene is a widely used counterselectable marker that renders cells sensitive to GCV by converting it to the toxic metabolite GCV-triphosphate (GCV-TP), which inhibits DNA synthesis and leads to cell death^38. […]

[2] = system: H1 LP-TK hESCs (HSV1-ΔTK); test: GCV kill-curve assay, LP-TK clone 581 vs parental cells, live cells by PrestoBlue; details: indicated GCV concentrations for 3 days
Protocol: Bars represent mean+S.D. of technical replicates (n=3). c, H1 LP-TK clone 581 and non-engineered parental H1 hESCs were treated with the indicated concentrations of GCV for 3 days, followed by quantification of live cells using PrestoBlue. Data were normalized to the value of untreated cells.
PrestoBlue (ThermoFisher Scientific A13262) staining was performed according to the manufacturer's protocol.

H1 hESCs [3] = test: Proaerolysin-induced cell death, Crystal Violet staining / kill-curve; format: cell-based, human
Protocol: FIG. 8. Development of an efficient counterselection strategy. a, Lack of paracrine activity in GCV/TK bystander effect. Parental H1 cells were grown for 7 days with regular StemFlex medium with or without 0.1 μM GCV or with a 1:1 mixture of regular medium and conditioned medium harvested from LP-TK cells grown with or without 0.1 μM GCV. […] Bars represent mean+S.D. for technical replicates (n=3). b, PCR genotyping for parental (Par), ΔPIGA and LP-PIGA H1 hESCs. Primers target a region of the PIGA gene (WT PIGA), the novel junction formed following PIGA deletion (ΔPIGA), a region of HPRT1 gene (WT HPRT1) and the two novel junctions formed between LP-PIGA and the surrounding genome (LP L and R Jx). c, Proaerolysin-induced cell death. The indicated H1 hESCs were treated with 0.5 nM proaerolysin for 1 day and stained with Crystal Violet. Proaerolysin resistance is conferred by PIGA inactivation and restored by hmPIGA expression. d, Rapid proaerolysin-induced cell death. e, Proaerolysin kill-curve for H1 hESCs and BL6xCAST mESCs. Cells were treated with proaerolysin for 1 day and assayed 3 days (H1) or 1 day (BL6xCAST) post treatment. Experiment was conducted in replicates (H1, n=4; BL6xCAST, n=2) and data are represented as mean±S.D. f, CD59/HLA flow cytometry of H1 hESCs. Note the complete loss of CD59, a GPI-anchored protein, in ΔPIGA cells, and the retention of HLA, a non-GPI-anchored membranal protein. g, Flow cytometry of H1 hESCs showing the reconstitution of CD59 expression in LP-PIGA cells.
Integration of a landing pad expressing a human mini PIGA gene (hmPIGA) to the HPRT1 locus resensitized H1 ΔPIGA hESCs to proaerolysin and restored CD59 expression (FIG. 7c, FIG. 7g). Importantly, rare ΔPIGA H1 hESCs were efficiently isolated when co-cultured with parental H1 cells by applying proaerolysin selection (FIG. 2d). Similarly, the Piga/proaerolysin counterselection strategy was used to efficiently isolate rare mESCs (FIG. 2e).

Row | Compound | effect on parental (TK-negative) H1 cells (Parental H1 cells) | TK-negative cells that died when mixed with TK-positive cells (H1 hESCs [1]; 1:1 ratio TK-negative:TK-positive) | death of TK-negative cells when mixed with TK-positive cells (H1 hESCs [1]; 1:10 ratio TK-negative:TK-positive) | cytotoxicity to LP-TK (HSV1-ΔTK expressing) H1 hESCs [2] | sensitivity of H1 ΔPIGA hESCs after landing pad expressing hmPIGA at HPRT1 (H1 hESCs [3]; LP-PIGA H1 hESCs) | killing of parental H1 hESCs (H1 hESCs [3]; parental H1 hESCs) | sensitivity of ΔPIGA H1 hESCs (H1 hESCs [3]; ΔPIGA cells (PIGA deleted using CRISPR/Cas9))
1 | Nc1nc(O)c2ncn(COC(CO)CO)c2n1 [GCV, Ganciclovir] | no effect | More than 80% | all died | kills LP-TK cells; also recorded: Robust cytotoxic activity |  |  | 
2 | proaerolysin: a bacterial prototoxin; perforates the plasma membrane upon binding to GPI anchors on the cell surface |  |  |  |  | resensitized | efficiently killed | entirely resistant
